In patent US9580416B2, “Inhibitors of Bruton's tyrosine kinase” (PHARMACYCLICS LLC, priority 2014, dated 2017):

Tests used:
Assay type in all cases: biochemical
Lck = Lck (Homo sapiens, UniProt P06239); test: Lck kinase activity, TR-FRET assay; conditions: read-out: LCK (IC50)
Method: (§1) Btk kinase activity is determined using a time-resolved fluorescence resonance energy transfer (TR-FRET) methodology. Measurements are performed in a reaction volume of 50 μL using 96-well assay plates. Kinase enzyme, inhibitor, ATP (at the Km for the kinase), and 1 […] (Biotin-AVLESEEELYSSARQ-NH2) are incubated in a reaction buffer composed of 20 mM Tris, 50 mM NaCl, MgCl2 (5-25 mM depending on the kinase), MnCl2 (0-10 mM), 1 mM DTT, 0.1 mM EDTA, 0.01% bovine serum albumin, 0.005% Tween-20, and 10% DMSO at pH 7.4 for one hour. The reaction is quenched by the addition of 1.2 equivalents of EDTA (relative to divalent cation) in 25 μL of 1× Lance buffer (Perkin-Elmer). Streptavidin-APC (Perkin-Elmer) and Eu-labeled p-Tyr100 antibody (Perkin-Elmer) in 1× Lance buffer are added in a 25 μL volume to give final concentrations of 100 nM and 2.5 nM, respectively, and the mixture is allowed to incubate for one hour. The TR-FRET signal is measured on a multimode plate reader with an excitation wavelength (λEx) of 330 nm and detection wavelengths (λEm) of 615 and 665 nm. Activity is determined by the ratio of the fluorescence at 665 nm to that at 615 nm. For each compound, enzyme activity is measured at various concentrations of compound. Negative control reactions are performed in the absence of inhibitor in replicates of six, and two no-enzyme controls are used to determine baseline fluorescence levels. Inhibition constants, Ki(app), ware obtained using the program BatchKi (Kuzmic et al. (2000), Anal. Biochem. 286:45-50). IC50s are obtained according to the equation: IC50={Ki(app)/(1+[ATP]/Km^ATP)}+[E]total/2;
(§2) For all kinases, [ATP]=Km^ATP, [Btk]total=0.5 nM and [Lck]total=6 nM.

EGFR = EGFR (Homo sapiens, UniProt P00533); test: Inhibition of a panel of kinases, in vitro HotSpot kinase assay: EGFR
EGFR, sequence (P00533 25-1210): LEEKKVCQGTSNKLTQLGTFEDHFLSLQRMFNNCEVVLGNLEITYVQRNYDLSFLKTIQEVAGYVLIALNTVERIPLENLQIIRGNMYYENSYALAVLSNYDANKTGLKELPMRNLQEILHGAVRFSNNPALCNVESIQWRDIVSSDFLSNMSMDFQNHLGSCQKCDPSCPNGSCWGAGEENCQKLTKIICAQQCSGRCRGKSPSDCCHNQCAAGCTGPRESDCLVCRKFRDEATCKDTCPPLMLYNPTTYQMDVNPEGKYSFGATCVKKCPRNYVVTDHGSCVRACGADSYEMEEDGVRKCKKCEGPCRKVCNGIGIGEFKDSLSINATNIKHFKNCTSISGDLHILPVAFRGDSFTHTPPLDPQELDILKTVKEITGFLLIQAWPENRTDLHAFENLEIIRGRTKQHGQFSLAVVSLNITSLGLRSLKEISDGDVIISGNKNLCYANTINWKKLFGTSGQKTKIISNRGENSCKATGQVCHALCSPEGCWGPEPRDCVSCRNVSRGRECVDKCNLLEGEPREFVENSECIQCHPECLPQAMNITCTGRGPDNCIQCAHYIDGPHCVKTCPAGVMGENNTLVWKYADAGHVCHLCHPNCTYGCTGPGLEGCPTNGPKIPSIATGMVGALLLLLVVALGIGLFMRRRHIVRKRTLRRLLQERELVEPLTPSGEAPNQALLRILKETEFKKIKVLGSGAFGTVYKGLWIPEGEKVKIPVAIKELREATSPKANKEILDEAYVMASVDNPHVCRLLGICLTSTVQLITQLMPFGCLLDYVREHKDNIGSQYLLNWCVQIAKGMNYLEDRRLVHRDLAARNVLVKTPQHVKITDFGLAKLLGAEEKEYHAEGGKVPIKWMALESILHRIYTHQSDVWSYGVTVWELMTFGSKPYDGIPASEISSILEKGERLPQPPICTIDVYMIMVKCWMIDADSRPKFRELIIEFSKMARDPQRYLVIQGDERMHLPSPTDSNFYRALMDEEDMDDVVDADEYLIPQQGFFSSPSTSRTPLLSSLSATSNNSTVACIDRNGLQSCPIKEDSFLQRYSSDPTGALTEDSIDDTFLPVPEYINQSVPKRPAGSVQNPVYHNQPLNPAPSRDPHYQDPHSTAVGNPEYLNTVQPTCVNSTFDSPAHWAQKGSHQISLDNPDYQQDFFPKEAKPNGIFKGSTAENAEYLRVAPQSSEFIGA
Method: The degree of inhibition of a panel of kinases is determined using the in vitro HotSpot kinase assay (purified enzymes, ^33P-ATP, an appropriate substrate and 1 uM ATP).

Btk = Btk (Homo sapiens, UniProt Q06187); test: Btk kinase activity, TR-FRET assay; conditions: read-out: Btk (IC50)
Btk, sequence (Q06187 whole entry): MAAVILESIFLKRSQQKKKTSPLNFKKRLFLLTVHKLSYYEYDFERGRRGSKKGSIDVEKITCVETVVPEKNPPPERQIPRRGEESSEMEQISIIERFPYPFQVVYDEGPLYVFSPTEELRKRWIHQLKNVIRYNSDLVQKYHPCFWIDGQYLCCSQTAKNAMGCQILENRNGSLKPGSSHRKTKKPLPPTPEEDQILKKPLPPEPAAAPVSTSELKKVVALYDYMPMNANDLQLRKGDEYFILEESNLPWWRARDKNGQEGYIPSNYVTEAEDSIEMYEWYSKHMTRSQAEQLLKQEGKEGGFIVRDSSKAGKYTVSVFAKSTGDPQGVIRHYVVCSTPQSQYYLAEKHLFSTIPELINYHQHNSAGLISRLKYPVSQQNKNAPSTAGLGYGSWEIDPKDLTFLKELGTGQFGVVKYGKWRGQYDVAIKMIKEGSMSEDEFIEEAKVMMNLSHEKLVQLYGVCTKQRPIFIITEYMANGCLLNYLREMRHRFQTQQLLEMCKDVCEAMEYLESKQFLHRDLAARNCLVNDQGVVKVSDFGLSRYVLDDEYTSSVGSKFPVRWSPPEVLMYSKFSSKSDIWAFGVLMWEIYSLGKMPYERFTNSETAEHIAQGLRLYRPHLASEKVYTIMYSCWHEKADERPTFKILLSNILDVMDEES
Method: as §1, §2

Lck, sequence (P06239 whole entry, species assumed): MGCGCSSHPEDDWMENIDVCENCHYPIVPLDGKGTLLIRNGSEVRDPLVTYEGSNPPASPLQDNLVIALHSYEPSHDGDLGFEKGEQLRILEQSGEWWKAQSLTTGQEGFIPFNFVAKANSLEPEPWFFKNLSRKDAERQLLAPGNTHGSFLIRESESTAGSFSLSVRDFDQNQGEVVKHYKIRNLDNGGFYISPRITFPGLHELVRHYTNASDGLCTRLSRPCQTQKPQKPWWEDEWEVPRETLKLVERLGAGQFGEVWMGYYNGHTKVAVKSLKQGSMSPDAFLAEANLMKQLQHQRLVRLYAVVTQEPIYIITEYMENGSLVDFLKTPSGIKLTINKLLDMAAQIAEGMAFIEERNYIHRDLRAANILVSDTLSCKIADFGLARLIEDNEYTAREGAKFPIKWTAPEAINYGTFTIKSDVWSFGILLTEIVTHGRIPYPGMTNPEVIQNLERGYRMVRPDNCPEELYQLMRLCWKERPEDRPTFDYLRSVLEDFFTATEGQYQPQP

Row | SMILES | IC50 (Lck) [µM] | IC50 (EGFR) [µM] | IC50 (Btk) [µM]
1 | CCC(=O)N1CC[C@@H](Nc2n[nH]c3nccc(Oc4ccc(C(=O)Nc5nnc(C)[nH]5)cc4)c23)C1 [compound 75, N-(5-methyl-4H-1,2,4-triazol-3-yl)-4-[(3-{[(3R)-1-propanoylpyrrolidin-3-yl]amino}-1H-pyrazolo[3,4-b]pyridin-4-yl)oxy]benzamide] | > 10 | > 10 | > 10
2 | Cc1ccnc(NC(=O)c2ccc(Oc3ccnc4[nH]nc(N[C@@H]5CCCN(C(=O)C6(C)CCOC6)C5)c34)cc2)c1 (stereo partly drawn) [compound 89, 4-[(3-{[(3R)-1-(3-methyloxolane-3-carbonyl)piperidin-3-yl]amino}-1H-pyrazolo[3,4-b]pyridin-4-yl)oxy]-N-(4-methylpyridin-2-yl)benzamide] | 1 to 10 | > 10 | < 0.1
3 | CN(C)C/C=C/C(=O)N1CC[C@@H](Nc2n[nH]c3nccc(Oc4ccc(Cl)cc4)c23)C1 [compound 3, (2E)-1-[(3R)-{[4-(4-chlorophenoxy)-1H-pyrazolo[3,4-b]pyridin-3-yl]amino}pyrrolidin-1-yl]-4-(dimethylamino)but-2-en-1-one] | > 10 | 0.1 to 1 | < 0.1
4 | CN(C)C/C=C/C(=O)N1CCC[C@@H](Nc2n[nH]c3nccc(Oc4cccc(Oc5ccccc5)c4)c23)C1 [compound 13, (2E)-4-(dimethylamino)-1-[(3R)-3-{[4-(3-phenoxyphenoxy)-1H-pyrazolo[3,4-b]pyridin-3-yl]amino}piperidin-1-yl]but-2-en-1-one] | 0.1 to 1 | 0.1 to 1 | < 0.1
5 | CN(C)C/C=C/C(=O)N1CC[C@@H](Nc2n[nH]c3nccc(Oc4cccc(Nc5ccncn5)c4)c23)C1 [compound 20, (2E)-4-(dimethylamino)-1-[(3R)-3-[(4-{3-[(pyrimidin-4-yl)amino]phenoxy}-1H-pyrazolo[3,4-b]pyridin-3-yl)amino]pyrrolidin-1-yl]but-2-en-1-one] | > 10 | 1 to 10 | > 10
6 | CCC(=O)N1CC[C@@H](Nc2n[nH]c3nccc(Oc4ccc(C(=O)Nc5nc6ccccc6[nH]5)cc4)c23)C1 [compound 69] | 0.1 to 1 | > 10 | 0.1 to 1
7 | CN(C)C/C=C/C(=O)N1CC[C@@H](Oc2n[nH]c3nccc(Nc4cccc(Oc5ccccc5)c4)c23)C1 [compound 17, (2E)-4-(dimethylamino)-1-[(3R)-3-({4-[(3-phenoxyphenyl)amino]-1H-pyrazolo[3,4-b]pyridin-3-yl}oxy)pyrrolidin-1-yl]but-2-en-1-one] | 0.1 to 1 | < 0.1 | < 0.1
8 | CCC(=O)N1CC[C@@H](Nc2n[nH]c3nccc(Oc4ccc(C(=O)Nc5nccn5C)cc4)c23)C1 [compound 73, N-(1-methyl-1H-imidazol-2-yl)-4-[(3-{[(3R)-1-propanoylpyrrolidin-3-yl]amino}-1H-pyrazolo[3,4-b]pyridin-4-yl)oxy]benzamide] | > 10 | > 10 | > 10
9 | CCNC(=O)N1CCC[C@@H](Nc2n[nH]c3nccc(Oc4ccc(C(=O)Nc5cc(C#N)ccn5)cc4)c23)C1 [compound 79, (3R)-3-[(4-{4-[(4-cyanopyridin-2-yl)carbamoyl]phenoxy}-1H-pyrazolo[3,4-b]pyridin-3-yl)amino]-N-ethylpiperidine-1-carboxamide] | 0.1 to 1 | < 0.1 | < 0.1
10 | CN(C/C=C/C(=O)Nc1ccccc1Nc1n[nH]c2nccc(Oc3ccc(Oc4ccccc4)cc3)c12)C1CC1 [compound 57] | > 10 | > 10 | > 10
11 | CCNC(=O)N1CCCC(c2n[nH]c3nccc(Oc4ccc(C(=O)Nc5ncc(C)s5)cc4)c23)C1 (stereo not drawn) [compound 195, N-ethyl-3-(4-{4-[(5-methyl-1,3-thiazol-2-yl)carbamoyl]phenoxy}-1H-pyrazolo[3,4-b]pyridin-3-yl)piperidine-1-carboxamide] | 1 to 10 | 1 to 10 | 0.1 to 1
12 | CN(C/C=C/C(=O)N1CC[C@@H](Nc2n[nH]c3nccc(Oc4ccc(C(=O)Nc5ncccn5)cc4)c23)C1)C1CC1 [compound 63] | > 10 | > 10 | 0.1 to 1
13 | CCNC(=O)N1CC[C@@H](Nc2n[nH]c3nccc(Oc4ccc(C(=O)Nc5ncc(C)s5)cc4)c23)C1 [compound 189] | 1 to 10 | > 10 | < 0.1
14 | CCNC(=O)N1CCC[C@@H](Nc2n[nH]c3nccc(Oc4ccc(-c5nc6cccc(C)c6o5)cc4)c23)C1 [compound 182] | > 10 | > 10 | 0.1 to 1
15 | CN(C/C=C/C(=O)N1CC[C@@H](Nc2n[nH]c3nccc(Oc4ccc(C(=O)Nc5ccncn5)cc4)c23)C1)C1CC1 [compound 64] | > 10 | > 10 | 0.1 to 1
16 | N#C/C(=C\c1ncc[nH]1)C(=O)N1CC[C@@H](Nc2n[nH]c3nccc(Oc4ccc(Oc5ccccc5)cc4)c23)C1 [compound 28, (2E)-3-(1H-imidazol-2-yl)-2-[(E)-(3R)-3-{[4-(4-phenoxyphenoxy)-1H-pyrazolo[3,4-b]pyridin-3-yl]amino}pyrrolidine-1-carbonyl]prop-2-enentrile] | 0.1 to 1 | < 0.1 | < 0.1
17 | CN(C)C/C=C/C(=O)N1CC[C@@H](Nc2n[nH]c3nccc(Oc4ccc(Oc5ccccc5)cc4C#N)c23)C1 [compound 34, 2-[(3-{[(3R)-1-[(2E)-4-(dimethylamino)but-2-enoyl]pyrrolidin-3-yl]amino}-1H-pyrazolo[3,4-b]pyridin-4-yl)oxy]-5-phenoxybenzonitrile] | 0.1 to 1 | 1 to 10 | < 0.1

The next lines start with the values.

Row | IC50 (Lck) [µM] | IC50 (EGFR) [µM] | IC50 (Btk) [µM] | SMILES
18 | 0.1 to 1 | 0.1 to 1 | 0.1 to 1 | CN(C)C/C=C/C(=O)N1CC[C@@H](Nc2n[nH]c3nccc(Oc4ccc(Oc5ccccc5)cc4S(N)(=O)=O)c23)C1 [compound 25, 2-[(3-{[(3R)-1-[(2E)-4-(dimethylamino)but-2-enoyl]pyrrolidin-3-yl]amino}-1H-pyrazolo[3,4-b]pyridin-4-yl)oxy]-5-phenoxybenzene-1-sulfonamide]
19 | < 0.1 | 0.1 to 1 | < 0.1 | CN(C)C/C=C/C(=O)N1CCCC(c2n[nH]c3nccc(Oc4ccc(Oc5ccccc5)cc4)c23)C1 (stereo not drawn) [compound 32, (2E)-4-(dimethylamino)-1-{3-[4-(4-phenoxyphenoxy)-1H-pyrazolo[3,4-b]pyridin-3-yl]piperidin-1-yl}but-2-en-1-one]
20 | 0.1 to 1 | 1 to 10 | < 0.1 | Cc1ccnc(NC(=O)c2ccc(Oc3ccnc4[nH]nc(N[C@@H]5CCCN(C(=O)C6CCN(C)CC6)C5)c34)cc2)c1 [compound 92, 4-[(3-{[(3R)-1-(1-methylpiperidine-4-carbonyl)piperidin-3-yl]amino}-1H-pyrazolo[3,4-b]pyridin-4-yl)oxy]-N-(4-methylpyridin-2-yl)benzamide]
21 | < 0.1 | < 0.1 | < 0.1 | c1ccc(Oc2ccc(Oc3ccnc4[nH]nc(NC5CCOCC5)c34)cc2)cc1 [compound 47]
22 | 0.1 to 1 | 1 to 10 | < 0.1 | Cc1ccnc(NC(=O)c2ccc(Oc3ccnc4[nH]nc(N[C@@H]5CCCN(C(=O)C6COC6)C5)c34)cc2)c1 [compound 90, N-(4-methylpyridin-2-yl)-4-[(3-{[(3R)-1-(oxetan-3-carbonyl)piperidin-3-yl]amino}-1H-pyrazolo[3,4-b]pyridin-4-yl)oxy]benzamide]
23 | 0.1 to 1 | < 0.1 | < 0.1 | CN(C/C=C/C(=O)N1CC[C@@H](Nc2n[nH]c3nccc(Oc4ccc(OCc5cnn[nH]5)cc4)c23)C1)C1CC1 [compound 40]
24 | 0.1 to 1 | 0.1 to 1 | < 0.1 | CN(C(=O)/C=C/CN(C)C1CC1)c1cccc(Nc2n[nH]c3nccc(Oc4ccc(Oc5ccccc5)cc4)c23)c1 [compound 38]
25 | < 0.1 | 0.1 to 1 | < 0.1 | N#CCC(=O)N1CC[C@@H](Nc2n[nH]c3nccc(Oc4ccc(Oc5ccccc5)cc4)c23)C1 [compound 44]
26 | < 0.1 | 0.1 to 1 | < 0.1 | CN(C/C=C/C(=O)N1CC[C@@H](Nc2n[nH]c3nccc(Oc4ccc(Oc5ccccc5)cc4)c23)C1)C1CC1 [compound 10, (2E)-4-[cyclopropyl(methyl)amino]-1-[(3R)-3-{[4-(4-phenoxyphenoxy)-1H-pyrazolo[3,4-b]pyridin-3-yl]amino}pyrrolidin-1-yl]but-2-en-1-one]
